According to PMC3827197, “Antidiabetic Effects of Chamomile Flowers Extract in Obese Mice through Transcriptional Stimulation of Nutrient Sensors of the Peroxisome Proliferator-Activated Receptor (PPAR) Family” (PLoS ONE, 2013):

Legend:
[1] = test system: PPARα target genes in HepG2 cells; test: qPCR gene expression in HepG2 hepatocytes, with PPARα siRNA knockdown; conditions: 300 µg/ml CFE or 10 µM GW7647, 24 h, vs vehicle
Protocol: Specificity of PPARα-driven modulation was investigated in siRNA-mediated knockdown in human hepatocytes and subsequent real-time PCR detection. Therefore, HepG2 cells were seeded in 24-well-plates (Nunc) at a density of 40,000 cells per well.

[2] = biological target: T1, PPARα (Homo sapiens, UniProt Q07869); test: Reporter gene assay of transcriptional activation, PPARα (HEK 293, GAL4-PPAR-LBD); assay type: cell-based; conditions: relative to reference compound GW7647
T1 construct: HEK 293 cells were stably expressing a GAL4-PPAR-LBD fusion protein and an UAS-beta-lactamase reporter gene; host or cells: HEK 293
T1 sequence (Q07869 239-466 limits assumed): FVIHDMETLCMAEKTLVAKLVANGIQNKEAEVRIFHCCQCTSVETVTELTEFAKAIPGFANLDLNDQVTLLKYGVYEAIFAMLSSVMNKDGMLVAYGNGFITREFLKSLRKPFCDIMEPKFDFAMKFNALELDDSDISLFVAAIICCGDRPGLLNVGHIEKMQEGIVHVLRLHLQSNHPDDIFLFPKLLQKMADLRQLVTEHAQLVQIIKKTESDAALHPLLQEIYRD
Protocol: Transcriptional activation of PPARs was assessed in cellular reporter gene assays according to the manufacturer’s protocols (GeneBLAzer PPAR alpha/gamma/delta Assay, Life Technologies). Briefly, HEK 293 cells were stably expressing a GAL4-PPAR-LBD fusion protein and an UAS-beta-lactamase reporter gene. Cells were incubated with different concentrations of compounds resulting in differential expression of the reporter gene. Binding and activation assays were measured with the POLARstar Omega (BMG LABTECH, Offenburg, Germany). Data were fitted using GraphPad Prism 5.0 according equation: Y=Bottom + (Top-Bottom)/(1+10^((LogEC50-X)*HillSlope)) with variable Hill slope.

[3] = test system: HFD-fed C57BL/6 mice; test: Therapy study in insulin-resistant obese HFD-fed (DIO) mice; conditions: CFE 200 mg/kg/d or RGZ 4 mg/kg/d
Protocol: Animal studies were approved by the State Office of Health and Social Affairs (Berlin, Germany) and were carried out according internationally approved guidelines. All animals were singly housed under temperature-, humidity- and light-controlled conditions (22°C, 50% humidity, 12 h light/12 h dark cycle). Mice had ad libitum access to food and water. Mice, food and water were weighed in a regularly to determine changes in body weight and food and water intake.
For the therapy study, we subjected male 6-week old C57BL/6 mice to an HFD for 18 weeks to induce obesity and insulin resistance. Prior to compound treatment, mice were weighed and distributed uniformly to three groups (n=9-14 each). […] After 2 weeks of treatment mice were subjected to an oral glucose tolerance test (OGTT). […]
Mice were fasted overnight before being subjected to an oral glucose (Sigma-Aldrich) dose of 2 g/kg body weight. Blood was taken from the tail vein at the indicated time points and blood glucose was analysed in a Hemocue B-Glucose analyser (Hemocue, Großostheim, Germany). […]
Whole blood glucose was analysed in a Hemocue B-Glucose analyser. Plasma glucose was measured using the Amplex Red Glucose Assay Kit (Life Technologies). Plasma triacylglycerol, NEFA, HDL and LDL/VLDL cholesterol and plasma alanine transaminase (ALT) were determined with colorimetric quantification kits (Biovision, Milpitas, CA, USA). […]

Which results are given for CC(C)(Sc1ccc(CCN(CCCCC2CCCCC2)C(=O)NC2CCCCC2)cc1)C(=O)O [GW7647]?
Expression of PPARα target genes (ACOX2, CPT 2, ECH1, HMGCS2) [1]: significantly induced expression; Efficacy PPARα [2]: 100%

With CN(CCOc1ccc(CC2SC(=O)NC2=O)cc1)c1ccccn1 (stereo not shown) [RGZ, rosiglitazone] as the compound, how does the “Gene expression of inflammatory markers in WAT” value ([3]; 6 weeks, qPCR) read?
The value was “remained largely unchanged”.

What about the “HOMA-IR insulin resistance, decrease” value ([3]; after 2 weeks) of the same compound?
The value was 67%.
